Laboratory results: patent US20020143012A1, “Phenoxazine analogs useful as amyloid aggregation inhibitors and treatment of alzheimer's disease and disorders related to amyloidosis” (priority 2000, published 2002)
Several values for one entry are separate records, joined by “and”; a condition that tells them apart may be missing. Equal entries are not always repeated. Where two headings read alike, the source gives them in different places.

Columns and labels:
Aβ(1-40) [1] = target: T1, Aβ(1-40) (Homo sapiens, UniProt P05067); assay: BASSR (Beta-Amyloid Self-Seeding Radioassay), inhibitors of self-seeded amyloid fibril growth; type: biochemical; conditions: 30 μM soluble Aβ(1-40), 125I-labeled Aβ(1-40), 37° C. 3 to 5 hours; replicate values; ppt = precipitate formed at the indicated concentration
T1 construct: Soluble Aβ(1-40) peptide (Bachem, Torrance, Calif.); purchased Bachem, Torrance, Calif
Experimental: 1. BASSR (Beta-Amyloid Self-Seeding Radioassay)
(§1) An assay for inhibitors of self-seeded amyloid fibril growth
(§2) Assay Buffer—50 mM sodium phosphate, pH 7.5, 100 mM NaCl, 0.02% NaN3, 1 M urea (filter and store at 4° C.)
Soluble Aβ(1-40) peptide (Bachem, Torrance, Calif.)—2.2 mg/mL in […] deionized H2O (is stored in aliquots at −20° C.; is kept on ice when thawed) will self-seed after 1 week storage. Typically, the solution is stored until no lag phase is seen in the assay.
^125I-labeled Aβ(1-40)—150K to 350K cpm/μL in 100% acetonitrile−0.1% trifluoroacetic acid (TFA)—1% β-mercaptoethanol (aliquots stored at −20° C). ^125I-labeled Aβ(1-40) is made in accordance with the procedure set forth by LeVine H., III, in Neurobiol. Aging, 1995;16:755, which is hereby incorporated by reference, or this reagent may be purchased from Amersham, Arlington Heights, Ill.
Final assay conditions: 30 μM soluble Aβ(1-40) in deionized water in assay buffer+20K to 50K cpm ^125I-labeled Aβ (1-40) per assay. Compound to be tested is dissolved in dimethylsulfoxide (DMSO), typically 5 to 50 mM stock, such that the final concentration of DMSO is<1% v/v in the assay.
Assay: Reaction mixture for 50 assays (on ice) is comprised of 0.1 to 0.2 μL of ^125I-labeled A^125I-labeled Aβ(1-40)+1 μL of soluble Aβ(1-40)+13.5 μL assay buffer per assay. The following are the amounts of the components of the reaction mixture sufficient for 50 assay wells.
1) The reaction mixture of above is prepared by mixing components and storing on ice.
b 2) 14.5 μL of the reaction mixture is pipetted into each of 50 wells on a polypropylene U-bottom 96-well microtiter plate on ice (Costar 3794).
(§3) 3) 1.7 μL of diluted compound to be tested is added to each well in a column of eight, including solvent control. Serial 3-fold dilutions from 1 mM (100 μM final) in assay buffer−urea=7 dilutions+zero. Each 96-well plate can therefore accommodate 11 samples+1 Congo Red control (0.039-5 μM final in 2-fold steps).
4) The plate with aluminum film (Beckman 538619) is sealed and incubated for 10 minutes on ice.
(§4) 5) The temperature is raised to 37° C. and incubated for 3 to 5 hours (depending on the lot of the peptide).
6) The aluminum film is removed and 200 μL/well of ice cold assay buffer with urea is added. The radiolabeled fibrils are collected by vacuum filtration through 0.2 μm pore size GVWP filters in 96-well plates (Millipore MAGV N22, Bedford, Mass.). The radioactivity of the filters is determined by using standard methods well-known to those skilled in the art.

Aβ(1-40) [2] = target: T1, Aβ(1-40); assay: BASST (Beta-Amyloid Self-seeding, Thioflavin T), inhibitors of self-seeded amyloid fibril growth; type: biochemical; conditions: 30 μM soluble Aβ(1-40), 37° C. 3 to 5 hours, thioflavin T fluorescence; replicate values
Experimental: 2. BASST (Beta-Amyloid Self-seeding, Thioflavin T)
as §1, §2
Soluble Aβ(1-40)—2.2 mg/mL in deionized H2O (is stored in aliquots at −20° C.; is kept on ice when thawed) will self-seed after 1 week storage. Typically, the solution is stored until no lag phase is seen in the assay.
Final assay conditions: 30 μM soluble Aβ(1-40) in deionized water in assay buffer. Compound to be tested is dissolved in DMSO, typically 5 to 50 mM stock, such that the final concentration of DMSO is<1% v/v in the assay.
Assay: Reaction mixture for 50 assays (on ice) is comprised of 1 μL of soluble Aβ(1-40)+13.5 μL assay buffer per assay. The following are the amounts of the components of the reaction mixture that result in each of the 50 assay wells.
1) The reaction mix above is prepared by mixing the components and storing on ice.
2) 14.5 μL of reaction mixture is pipetted into each of 50 wells of a polystyrene U-bottom, 96-well microtiter plate (Corning 25881-96) on ice.
as §3
4) The plate with aluminum film is sealed and incubated for 10 minutes on ice.
as §4
6) The aluminum film is removed and 250 μL/well of 5 μM thioflavin T (ThT) [T-3516, Sigma-Aldrich] is added in 50 mM glycine-NaOH, pH 8.5. Fluorescence is read on a plate reader (ex=440 nm/20 nm; em=485 nm/20 nm) within 5 minutes.

Aβ(1-40) peptide = target: T2, Aβ(1-40) peptide (Homo sapiens, UniProt P05067); assay: BAPA (Beta-Amyloid Peptide Aggregation), pH 6.0, filtration endpoint; type: biochemical
T2 construct: 10 μL 0.5 mg/mL Aβ(1-40) peptide in 20% HFIP
Experimental: 3. BAPA (Beta-Amyloid Peptide Aggregation)
This assay is used to provide a measure of inhibition by a compound against the aggregation behavior of the beta amyloid peptide.
The purpose of this assay is to provide a higher volume method of assaying the amount of beta amyloid aggregation using an endpoint assay based on filtration. In this assay, hexafluoroisopropanol (HFIP) is used to break down the initial amyloid peptide to a monomer state and a concentration of 33 μM is used, a concentration which is high enough so that aggregation will occur at pH 6.0 in several hours.
β-Amyloid Peptide Aggregation, pH 6.0 (BAPA)
To a 96-well plate (Costar 3794) is added 25 μL 50 mM Phosphate Buffer (pH 6.0), 10 μL 0.5 mg/mL Aβ(1-40) peptide in 20% HFIP+0.1 μL/assay radioiodinated ^125I Aβ(1-40) [^125I Aβ(1-40)], and 1 μL of the compound to be tested, starting at […] with a concentration of DMSO<1%. The reaction is incubated for 2 to 4 hours at room temperature. The reaction is stopped with 200 μL of 50 mM phosphate buffer, pH 6.0, and filtered through a 0.2 μm 96-well filter plate (Millipore MAGU N22). The filter plate is washed with 100 μL of the same phosphate buffer. Aggregation is detected on a Microbeta counter after impregnating the filters with Meltilex (1450-441) and is corrected for background.

Aβ(1-42) = target: T3, Aβ(1-42) (Homo sapiens, UniProt P05067); assay: BATYM assay, Aβ(1-42) aggregation by Thioflavin T fluorescence; type: biochemical; conditions: Aβ1-42 final concentration 100 μM, 37° C. 1 day, ThT fluorescence; (P)/(Q) marks undefined
T3 construct: Required Aβ(1-42) (California Peptide) is dried from its hexafluoroisopropanol (HFIP) stock solution; purchased California Peptide
Experimental: Required Aβ(1-42) (California Peptide) is dried from its hexafluoroisopropanol (HFIP) stock solution. The Aβ(1-42) is dissolved in DMSO and then mixed with phosphate buffered saline (PBS) (pH 7.4). The mixed Aβ(1-42) solution is filtered with a GVWP 0.22 μm syringe filter (Millipore, Bedford, Mass.). The compound to be tested in DMSO (50 times concentrate) is put into each well (0.5 μL/well) of a 96-well plate. The Aβ(1-42) solution is added into each well (25 μL/well). The plate is centrifuged at 1000 g for 5 minutes and incubated at 37° C. for 1 day (Aβ1-42; final concentration 100 μM).
After incubation Thioflavin T (ThT) (30 μM) solution in glycine-NaOH buffer (pH 8.5, 50 mM) is added into each well (250 μL/well), fluorescence is measured (ex=440/20 nm, em=485/20 nm) using a fluorescence plate reader. The inhibitory activity is calculated as the reduction of fluorescence with the following formula:
Inhibition (%)={(F(Aβ)−F(Aβ+compound)}/{F(Aβ)−F(solvent−compound)}×100.
The IC50s are calculated by a curve-fitting program using the equation given below. The data is obtained from two different experiments in triplicate.
x=concentration of tested compound (M),

[3] = 33 μM Aβ(1-40), pH 6.0, 2 to 4 hours at room temperature, (Q) mark undefined, read-out: BAPA (IC50 = μM)
[4] = marked (BAPA2), variant not described, read-out: BAPA (IC50 = μM), value marked (BAPA2)

T2 sequence (P05067 672-711): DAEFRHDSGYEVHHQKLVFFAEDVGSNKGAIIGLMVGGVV
T1 sequence (P05067 672-711): as above
T3 sequence (P05067 672-713): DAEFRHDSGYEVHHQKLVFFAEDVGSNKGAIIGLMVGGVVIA

## 3-Nitrophenoxazinecarboxylic acid [Compound 3]
Aβ(1-40) [1]
  IC50: 8 µM
Aβ(1-40) [2]
  IC50: 13 µM (2×) and 40 µM (2×) and 23 µM (2×)
Aβ(1-40) peptide; [3]
  IC50: 62 µM
Aβ(1-40) peptide; [4]
  IC50: > 100 µM

## O=C(O)c1cc([N+](=O)[O-])cc2c1Nc1cc(-c3ccccc3)ccc1O2 [Compound 2, 3-nitro-8-phenylphenoxazinecarboxylic acid]
Aβ(1-40) [1]
  IC50: 60 µM (2×) and 70 µM
Aβ(1-40) [2]
  IC50: 1 µM
Aβ(1-40) peptide; [3]
  IC50: 5 µM
Aβ(1-42)
  IC50: 4.15 µM

## O=C(O)c1cc(OCc2ccccc2)cc2c1Nc1ccccc1O2 [Compound 4, 3-(Phenylmethoxy)phenoxazinecarboxylic acid]
Aβ(1-40) [1]
  IC50: 14 µM
Aβ(1-40) [2]
  IC50: 8.4 µM and 45 µM (2×) and 8.44 µM
Aβ(1-40) peptide; [4]
  IC50: > 50 µM

## O=C(O)c1cc([N+](=O)[O-])cc2c1Nc1ccc(CCc3ccc(Cl)c(Cl)c3)cc1O2 [Compound 5, 7-[2-(3,4-dichlorophenyl)ethyl]-3-nitrophenoxazinecarboxylic acid]
Aβ(1-40) [1]
  IC50: 60 µM and > 100 µM
Aβ(1-40) [2]
  IC50: 3 µM and 1 µM
Aβ(1-40) peptide; [3]
  IC50: 0.9 µM
other
  melting point: > 250 °C
Aβ(1-42)
  IC50: 7.89 µM and 3.02 µM

## O=C(/C=C/c1ccc2c(c1)Oc1cc([N+](=O)[O-])cc(C(=O)O)c1N2)c1ccc(Cl)c(Cl)c1 [Compound 6, 7-[3-(3,4-Dichlorophenyl)-3-oxoprop-1-enyl]-3-nitrophenoxazinecarboxylic acid]
Aβ(1-40) [1]
  IC50: 21 µM and 22 µM and 25 µM
Aβ(1-40) [2]
  IC50: 1 µM
Aβ(1-40) peptide; [3]
  IC50: > 100 µM
other
  melting point: > 200 °C
Aβ(1-42)
  IC50: 4.61 µM

## O=C(O)c1cc([N+](=O)[O-])cc2c1Nc1ccc(CCCc3ccc(Cl)c(Cl)c3)cc1O2 [Compound 7, 7-[3-(3,4-Dichlorophenyl)propyl]-3-nitrophenoxazine carboxylic acid]
Aβ(1-40) [1]
  IC50: 30 µM and 20 µM and 6 µM
Aβ(1-40) [2]
  IC50: 0.5 µM
Aβ(1-40) peptide; [3]
  IC50: > 100 µM
Aβ(1-42)
  IC50: 1.88 µM

## O=C(O)c1cc([N+](=O)[O-])cc2c1Nc1ccc(CCC(O)c3ccc(Cl)c(Cl)c3)cc1O2 (stereo not shown) [Compound 8, 7-[3-(3,4-Dichlorophenyl)-3-hydroxypropyl]-3-nitrophenoxazine carboxylic acid]
Aβ(1-40) [1]
  IC50: > 100 µM and 100 µM (2×)
Aβ(1-40) [2]
  IC50: 0.6 µM
Aβ(1-40) peptide; [3]
  IC50: 100 µM
other
  melting point: 218 to 220 °C
Aβ(1-42)
  IC50: 4.18 µM

## Nc1cc2c(c(C(=O)O)c1)Nc1ccc(CCCc3ccc(Cl)c(Cl)c3)cc1O2 [Compound 9, 3-Amino-7-[3-(3,4-dichlorophenyl)propyl]phenoxazine carboxylic acid]
Aβ(1-40) [1]
  IC50: 60 µM and > 100 µM
Aβ(1-40) [2]
  IC50: 3 µM
Aβ(1-40) peptide; [3]
  IC50: 86 µM
other
  melting point: 213 to 216 °C
Aβ(1-42)
  IC50: 8.75 µM

## O=C(O)c1cc([N+](=O)[O-])cc2c1Nc1cc3ccccc3cc1O2 [Compound 21, 3-nitrobenzo[b]phenoxazinecarboxylic acid]
Aβ(1-40) [1]
  IC50: 12 µM and 11 µM and 10 µM
Aβ(1-40) [2]
  IC50: 1 µM
Aβ(1-40) peptide; [3]
  IC50: 67 µM
other
  melting point: > 230 °C
Aβ(1-42)
  IC50: 6.7 µM
